Values of other authors in patent publication EP1935397A1, “Oral and tooth care and cleaning agents for combating halitosis” (Henkel AG & Co. KGaA, priority 2006, dated 2008).

Conditions: 20°C

| Compound | Löslichkeit |
| --- | --- |
| Zinkiodid | 4500 g/l (20°C) |
| Zinksulfat-Monohydrat | ~350 g/l (20°C) |
| Zinknitrat Hexahydrat | 1843 g/l (20°C) |
| Zinkgluconat | 100 g/l (20°C) |
| Zinkstearat | 0,9 mg/l (20°C) |
| Zinksulfat-Heptahydat | 960 g/l (20°C) |
| Zinkacetat-Dihydrat | 430 g/l (20°C) |

Same assay, conditions: 20°C; result in words

| Compound | Löslichkeit |
| --- | --- |
| Zinknitrat-Tetrahydrat | Leicht löslich (20°C) |
| Zinkhydroxycarbonat | Fast unlöslich (20°C) |

Same assay, conditions: 25°C

| Compound | Löslichkeit |
| --- | --- |
| Zinkchlorid | 4320 g/l (25°C) |
| Zinkbromid | 820 g/l (25°C) |

Same assay, conditions: temperature not given; result in words

| Compound | Löslichkeit |
| --- | --- |
| [O-2].[Zn+2] [Zinkoxid] | Unlöslich |
